In the data set the test system is CCRIS mutagenicity, Ames/micronucleus/aberration tests. As to the kind of experiment: CCRIS mutagenicity studies.
[1] abbreviates: Test System: AMES SALMONELLA TYPHIMURIUM, Strain/Indicator: TA98, Metabolic Activation: NONE, Method: PREINCUBATION
Setting [2] is: Test System: AMES SALMONELLA TYPHIMURIUM, Strain/Indicator: TA100, Metabolic Activation: NONE, Method: PREINCUBATION

Activity calls are given as the source filed them. The rule behind the calls is not given here.

`COC(=O)c1ccc(C=O)cc1`: the mutagenic call is “inactive; negative” (Test System: AMES SALMONELLA TYPHIMURIUM, Strain/Indicator: TA97, Metabolic Activation: HAMSTER, LIVER, S-9, AROCLOR 1254 (10 OR 30%), Method: PREINCUBATION); “inactive; negative” (Test System: AMES SALMONELLA TYPHIMURIUM, Strain/Indicator: TA97, Metabolic Activation: NONE, Method: PREINCUBATION); “inactive; negative” (Test System: AMES SALMONELLA TYPHIMURIUM, Strain/Indicator: TA97, Metabolic Activation: RAT, LIVER, S-9, AROCLOR 1254 (10 OR 30%), Method: PREINCUBATION); “inactive; negative” (Test System: AMES SALMONELLA TYPHIMURIUM, Strain/Indicator: TA98, Metabolic Activation: HAMSTER, LIVER, S-9, AROCLOR 1254 (10 OR 30%), Method: PREINCUBATION); “inactive; negative” under setting [1]; “inactive; negative” (Test System: AMES SALMONELLA TYPHIMURIUM, Strain/Indicator: TA98, Metabolic Activation: RAT, LIVER, S-9, AROCLOR 1254 (10 OR 30%), Method: PREINCUBATION). The mutagenic call by setting is: (Test System: AMES SALMONELLA TYPHIMURIUM, Strain/Indicator: TA100, Metabolic Activation: HAMSTER, LIVER, S-9, AROCLOR 1254 (10 OR 30%), Method: PREINCUBATION) “inactive; negative”; under setting [2], “inactive; negative”; (Test System: AMES SALMONELLA TYPHIMURIUM, Strain/Indicator: TA100, Metabolic Activation: RAT, LIVER, S-9, AROCLOR 1254 (10 OR 30%), Method: PREINCUBATION) “inactive; negative”; (Test System: AMES SALMONELLA TYPHIMURIUM, Strain/Indicator: TA1535, Metabolic Activation: HAMSTER, LIVER, S-9, AROCLOR 1254 (10 OR 30%), Method: PREINCUBATION) “inactive; negative”; (Test System: AMES SALMONELLA TYPHIMURIUM, Strain/Indicator: TA1535, Metabolic Activation: NONE, Method: PREINCUBATION) “inactive; negative”; (Test System: AMES SALMONELLA TYPHIMURIUM, Strain/Indicator: TA1535, Metabolic Activation: RAT, LIVER, S-9, AROCLOR 1254 (10 OR 30%), Method: PREINCUBATION) “inactive; negative”.

As to `CC(=O)N(N=O)c1ccc2c(c1)Cc1ccccc1-2`, the mutagenic call is, setting by setting: (Test System: CHINESE HAMSTER OVARY, Strain/Indicator: CHO/6-THIOGUANINE (HGPRT), Metabolic Activation: NONE, Method: STANDARD PLATE) “active; positive”; (Test System: CHINESE HAMSTER OVARY, Strain/Indicator: CHO/OUABAIN (HGPRT), Metabolic Activation: NONE, Method: STANDARD PLATE) “active; positive”.

As to `Cc1ccc([N+](=O)[O-])cc1N=[N+]([O-])c1cc([N+](=O)[O-])ccc1C`, the mutagenic call is “inactive; negative” (Test System: AMES SALMONELLA TYPHIMURIUM, Strain/Indicator: TA98, Metabolic Activation: NONE, Method: SUSPENSION/PLATE); “inactive; negative” (Test System: AMES SALMONELLA TYPHIMURIUM, Strain/Indicator: TA98, Metabolic Activation: RAT, LIVER, S-9, PHENOBARBITAL AND 5,6-BENZOFLAVONE, Method: SUSPENSION/PLATE); “inactive; negative” (Test System: AMES SALMONELLA TYPHIMURIUM, Strain/Indicator: TA100, Metabolic Activation: NONE, Method: SUSPENSION/PLATE); “inactive; negative” (Test System: AMES SALMONELLA TYPHIMURIUM, Strain/Indicator: TA100, Metabolic Activation: RAT, LIVER, S-9, PHENOBARBITAL AND 5,6-BENZOFLAVONE, Method: SUSPENSION/PLATE).

On to `Nc1ccc2nc3ccccc3nc2c1`, for which the mutagenic call runs as follows: under setting [1], “inactive; negative”; (Test System: AMES SALMONELLA TYPHIMURIUM, Strain/Indicator: TA98, Metabolic Activation: RAT, LIVER, S-9, PCB, Method: PREINCUBATION) “active; positive”.

As to `CCc1cccc2cccnc12`, under “Test System: AMES SALMONELLA TYPHIMURIUM, Strain/Indicator: TA100, Metabolic Activation: S-9, Method: PREINCUBATION”, the mutagenic call was “active; positive”.

For `O=C(O)C(Cl)Br` (stereo unspecified), the mutagenic call reads like this: (End Point: In vivo micronucleus, Test System: Peripheral blood normochromatic erythrocytes, Species: Mouse, Strain/Sex: B6C3F1/Female, Route: Oral) “inactive; negative”; (End Point: In vivo micronucleus, Test System: Peripheral blood normochromatic erythrocytes, Species: Mouse, Strain/Sex: B6C3F1/Male, Route: Oral) “inactive; negative”; under setting [1], “inactive; negative”; (Test System: AMES SALMONELLA TYPHIMURIUM, Strain/Indicator: TA98, Metabolic Activation: RAT, LIVER, S-9, PHENOBARBITAL AND 5,6-BENZOFLAVONE, Method: PREINCUBATION) “inactive; negative”; under setting [2], “active; positive”; (Test System: AMES SALMONELLA TYPHIMURIUM, Strain/Indicator: TA100, Metabolic Activation: RAT, LIVER, S-9, PHENOBARBITAL AND 5,6-BENZOFLAVONE, Method: PREINCUBATION) “active; positive”. In addition, the mutagenic call reads like this: (Test System: Ames Salmonella typhimurium, Strain/Indicator: TA98, Metabolic Activation: Hamster, Liver, S9, Aroclor 1254, Method: Preincubation) “inactive; negative”; (Test System: Ames Salmonella typhimurium, Strain/Indicator: TA98, Metabolic Activation: None, Method: Preincubation) “inactive; negative”; (Test System: Ames Salmonella typhimurium, Strain/Indicator: TA98, Metabolic Activation: Rat, Liver, S9, Aroclor 1254, Method: Preincubation) “inactive; negative”; (Test System: Ames Salmonella typhimurium, Strain/Indicator: TA100, Metabolic Activation: Hamster, Liver, S9, Aroclor 1254 (30%), Method: Preincubation) “active; positive”; (Test System: Ames Salmonella typhimurium, Strain/Indicator: TA100, Metabolic Activation: Rat, Liver, S9, Aroclor 1254 (10%), Method: Preincubation) “active; positive”; (Test System: Ames Salmonella typhimurium, Strain/Indicator: TA100, Metabolic Activation: Rat, Liver, S9, Aroclor 1254 (30%), Method: Preincubation) “active; positive”. For the same molecule, the mutagenic call reads like this: (Test System: E. coli, Strain/Indicator: WP2 uvrA/pKM101, Metabolic Activation: None, Method: Preincubation) “inactive; negative”; (Test System: E. coli, Strain/Indicator: WP2 uvrA/pKM101, Metabolic Activation: Rat, Liver, S9, Aroclor 1254 (10%), Method: Preincubation) “inactive; negative”.

Consider `CS(=O)CCCCN=C=S` (stereo unspecified), for which, for the setting “End Point: IN VITRO MICRONUCLEUS, Test System: HUMAN T-LYMPHOCYTES, Metabolic Activation: NONE”, the mutagenic call was “inactive; negative”.

These data come from PubChem BioAssay AID1259407 (Chemical Carcinogenesis Research Information System (CCRIS), 2018).
